PubChem BioAssay (NCI)
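Grown in 96-well plates, cells were treated for 48 hours with each compound at five concentrations. Insufficient inhibition: endpoint recorded as highest concentration tested. GI50 is the concentration that inhibits growth by half. The concentration for full growth arrest is given as TGI.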

Tests used:
Assay in all cases: DTP human tumour cell line panel, 48 h
SF-295 CNS = system: SF-295 CNS
SR leukemia = system: SR leukemia
NCI-H23 lung = system: NCI-H23 lung
HOP-92 NSCLC = system: HOP-92 NSCLC
HCC-2998 colon = system: HCC-2998 colon
A498 renal = system: A498 renal
HT29 colon = system: HT29 colon
SW-620 colon = system: SW-620 colon
HCT-15 colon = system: HCT-15 colon
NCI-H226 lung = system: NCI-H226 lung

Structure (SMILES)	TGI (SF-295 CNS) [µM]	TGI (SR leukemia) [µM]	TGI (NCI-H23 lung) [µM]	TGI (HOP-92 NSCLC) [µM]	TGI (HCC-2998 colon) [µM]	TGI (A498 renal) [µM]	TGI (HT29 colon) [µM]	TGI (SW-620 colon) [µM]	TGI (HCT-15 colon) [µM]	TGI (NCI-H226 lung) [µM]	GI50 (SF-295 CNS)	GI50 (NCI-H23 lung)	GI50 (HOP-92 NSCLC)	GI50 (NCI-H226 lung)	GI50 (HCC-2998 colon) [µM]	GI50 (A498 renal) [µM]	GI50 (HT29 colon)	GI50 (SW-620 colon)	GI50 (HCT-15 colon)	GI50 (SR leukemia) [µM]
COC(=O)c1nc(N)nc(C(=O)OC)c1C(=O)c1ccccc1	> 100	> 100	> 100	> 100	> 100	> 100	> 100	> 100	> 100	–	–	–	–	–	–	–	–	–	–	–
CC(=O)O[C@H]1CC[C@@]2(C)C(=C/C(=N\[N+](=O)[O-])[C@H]3C4CCC([C@H](C)CCCC(C)C)[C@@]4(C)CCC32)C1 (stereo partly drawn)	> 100	–	> 100	> 100	–	> 100	> 100	> 100	> 100	> 100	–	–	–	–	–	–	–	–	–	–
Nc1ccccc1C#C/C=C\C#Cc1ccccc1F	16.6	–	26.6	> 100	5.26	21	47.6	> 100	19.7	33.3	3.9 µM	10.4 µM	17.9 µM	15.2 µM	2.25	7.66	5.06 µM	16 µM	5.17 µM	–
O=C(NN1C(=O)CSC12CCC(c1ccccc1)CC2)c1[nH]c2ccc(F)cc2c1-c1ccccc1 (stereo not drawn)	41.6	–	32	34.5	28.3	34.9	30.5	36.8	32.7	38.6	22 µM	17.4 µM	17.2 µM	19.2 µM	14.9	18.5	14.8 µM	17.4 µM	16.6 µM	–
CC(C)c1cccc(C(C)C)c1NC(=O)C(=O)C1SC(=S)NC1=O (stereo not drawn)	> 100	> 100	> 100	> 100	–	> 100	> 100	> 100	> 100	> 100	–	–	–	–	–	–	–	–	–	–
COc1ccc(C=C2C(=O)NC(=O)NC2=O)cc1OCc1ccccc1	–	–	–	–	–	–	–	–	–	–	32.5 µg/mL	31.7 µg/mL	57.2 µg/mL	49.1 µg/mL	–	–	31.7 µg/mL	50.7 µg/mL	30.8 µg/mL	–
[O-][n+]1c2cc(CN3CCOCC3)c(CN3CCOCC3)cc2[n+]([O-])c2c(O)cccc21	2.16	0.701	8.88	10.4	–	31.5	9.18	7.16	8.14	30.9	–	–	–	–	–	–	–	–	–	–
COc1ccc(CN=C(N)N=C(N)N)cc1OC	> 1000	–	> 1000	–	> 1000	> 1000	> 1000	> 1000	> 1000	> 1000	194 µM	522 µM	–	619 µM	> 1000	151	> 1000 µM	> 1000 µM	> 1000 µM	–
COc1cc(/C=C\c2ccc(Cl)cc2)cc(OC)c1OC	0.218	16.7	1.12	–	32.7	1.25	10.2	> 100	14.4	6.84	–	–	–	–	–	–	–	–	–	–
C=C(C)C(=O)O[C@H]1CC2=CC(CC(C)=C[C@H]3OC(=O)C(=C)C13)OC2=O (stereo partly drawn)	> 100	–	> 100	32.4	> 100	76	43.2	36	25.6	> 100	–	–	–	–	–	–	–	–	–	–
Nc1ccc(C2=Nc3ccccc3SC(c3ccccc3O)C2)cc1 (stereo not drawn)	> 100	–	> 100	–	> 100	74.1	> 100	> 100	> 100	> 100	–	–	–	–	–	–	–	–	–	–
COC1OC(C(C)O)C2OC(C)(C)OC12 (stereo not drawn)	> 100	> 100	> 100	–	–	> 100	> 100	> 100	> 100	> 100	–	–	–	–	–	–	–	–	–	–
Cc1ccc([N+](=O)[O-])c2c(NCCC[N+](C)(C)[O-])ccnc12	> 100	> 100	> 100	> 100	58.9	90.5	> 100	> 100	–	> 100	–	–	–	–	–	–	–	–	–	–
COc1ccc(/C=N\O[Si](C)(C)C(C)(C)C)cc1O[Si](C)(C)C(C)(C)C	30.9	–	37.1	37.6	32.9	33.2	36.2	36.9	34	–	–	–	–	–	–	–	–	–	–	–
CCCC(CCC)C(=O)OCC1(CO)C/C(=C\c2ccc(C(F)(F)F)cc2)C(=O)O1 (stereo not drawn)	17.7	31.1	32.1	–	24	10.3	30.6	21.8	26.9	33.1	2.44 µM	15.8 µM	–	14.1 µM	10.9	0.105	14.4 µM	8.64 µM	12.8 µM	14.9
COC(=O)C1C(/C=C/c2ccoc2)ON2CCC[C@@H]12 (stereo partly drawn)	> 100	> 100	> 100	> 100	> 100	–	> 100	> 100	–	> 100	–	–	–	–	–	–	–	–	–	–
NS(=O)(=O)c1ccc(N2N=C(c3cccs3)CC2c2ccccc2O)cc1 (stereo not drawn)	2.26	> 33.3	8.47	–	5.12	4.01	2.39	4.83	> 33.3	17.4	0.829 µM	1.3 µM	–	3.4 µM	1.33	0.835	0.897 µM	1.16 µM	1.35 µM	1.36
O=c1[nH]c2c(c3ccccc13)CCc1ccccc1-2	> 100	> 100	> 100	–	> 100	–	> 100	> 100	> 100	> 100	–	–	–	–	–	–	–	–	–	–
Clc1ccc(/C=C/c2nc(Cl)c(-c3ccc(Cl)cc3)c(Cl)n2)cc1	> 100	–	> 100	> 100	–	> 100	> 100	> 100	> 100	> 100	–	–	–	–	–	–	–	–	–	–
COC1C(O)C(C)OC(O[C@@H]2C[C@H]3CC[C@@H]4[C@H](CC[C@]5(C)[C@@H](C6=CC(=O)OC6)CC[C@]45O)[C@@]3(C)[C@H](O)C2)C1O (stereo partly drawn)	0.321	–	0.0231	> 100	2.69	0.0871	0.472	–	0.327	0.532	–	–	–	–	–	–	–	–	–	–
